# Assays:
# [1] = test system: sciatic nerve ligation injury model; experiment: Heat test before and after administration of serotonin depletor, opioid antagonist, α- or β-adrenergic receptor blocker; assay type: in vivo, rat; conditions: 3 weeks after ligation; for heat test with vs without / before vs after the depletor or blocker, control group: saline control group, 5,7-DHT intradural, naloxone 5 mg/kg, propranolol 10 mg/kg
# Experimental: (§1) A sciatic nerve ligation injury model was prepared by modifying the neuropathic pain model published by Bennett et al. according to the method of Takeba (Pain, Vol. 33, pp. 87-107, 1988; Ehime Igaku (Ehime Medical Journal), Vol. 21, pp. 192-206, 2002). Under anesthesia by inhalation of 3% halothane and nitrous oxide, bilateral sciatic nerves of 8- to 12-week old female Wistar rats (Clea Japan, Inc., Osaka) were exposed and ligated at the central level of the femur along with a 27-gauge injection needle on the both sides by using a 4-0 polyglycolic acid suture at 4 sites at intervals of 1 mm for both sides. Then, the injection needle was removed to prepare a sciatic nerve ligation injury model. The ligation was attained to such a degree that the crural muscles slightly contractable by a stimulus given to the nerve, and care was taken not to cause injury in the axon by the ligation operation itself.
# A solution of ginsenoside Rb1 (0.10 or 0.50 μg/μl) in a volume of 120 μl or an equivalent volume of saline was intravenously administered by one-shot to rats 24 hours after the sciatic nerve ligation. Then, ginsenoside Rb1 was intravenously administered continuously by using the continuous injection pump at a dose of 12 μg/day (hereinafter referred to as “S12”) or 60 μg/day (hereinafter referred to as “S60”) and a rate of 0.25 μL/hour for 4 weeks. Similarly, saline was intravenously administered continuously for 4 weeks as the control group.
# (§2) To determine thermal paw withdrawal latency, a heat test was performed by using Plantar Test produced by Ugo Basile (Planter test 7370, Ugo Basile, Italy) according to the method of Hargreaves et al. (Pain, Vol. 32, pp. 77-88, 1988). Rats were placed on a plastic table maintained at a temperature of 23 to 24° C. and stimulated on the sole by using a thermal stimulator, and withdrawal latency (seconds) was measured. Occurrence of hyperalgesia was determined on the basis of shortening of the latency. The latency was measured 3 times for both the soles always at an interval of 5 minutes, and the average of the results of 6 times in total of measurements was used as a measured value.
# To elucidate the action mechanism of Rb1, examination was performed by using depletors or blockers against substances reported to be involved in the descending pain signal transmission in the spinal cord, such as serotonin depletors, opioid receptor antagonists, α-adrenergic receptor blockers, and β-adrenergic receptor blockers (Biol. Pharm. Bull., 22-7, pp. 691-697, 1999). The heat test was performed 24 hours after the sciatic nerve ligation, and only rats showing an average latency for both feet of 90% or lower of the same before the operation were used. Animals in a number of 48 in total were arbitrarily divided into 8 groups (6 animals per group) to prepare Rb1-administered groups and a control group. A serotonin depletor, opioid receptor antagonist, α-adrenergic receptor blocker and β-adrenergic receptor blocker were each administered 3 weeks after the ligation, the heat test was performed before and after the administration, and the results were compared.
# The serotonin depletor, 5,7-dihydroxytryptamine (5,7-DHT, ICN Biomedicals Inc., Ohio, U.S.A), was intradurally administered in an amount of […] 1 week before the measurement, and the heat test was performed 3 weeks after the ligation. Further, the heat test was performed 3 weeks after the ligation, on the following day, 5 mg/kg of the opioid receptor antagonist, naloxone (USP, Rockville, U.S.A), 10 mg/kg of the β-adrenergic receptor blocker, propranolol (SIGMA-ALDRICH Co., St. Louis, U.S.A), and 20 mg/kg of the α-adrenergic receptor blocker, phentolamine (SIGMA-ALDRICH Co., St. Louis, U.S.A), were each subcutaneously injected, and the heat test was performed again one hour later.
# mice = conditions: cited from earlier work
# [2] = test system: sciatic nerve ligation injury model; experiment: Heat test (thermal paw withdrawal latency) in sciatic nerve ligation injury model; assay type: in vivo, rat; conditions: continuously administered i.v. for 4 weeks from 24 hours after sciatic nerve ligation (12 or 60 μg/day); 3 weeks after the ligation and thereafter; vs saline control
# Experimental: as §1, with “The ligation was attained to such a degree that the crural muscles slightly contractable by a stimulus given to the nerve, and care was taken not to cause injury in the axon by the ligation operation itself.” left out
# as §2
# [3] = test system: sciatic nerve ligation injury model; experiment: Pressure test (von Frey withdrawal threshold) in sciatic nerve ligation injury model; assay type: in vivo, rat; conditions: continuously administered i.v. for 4 weeks from 24 hours after sciatic nerve ligation, vs saline control
# Experimental: as §1, with “The ligation was attained to such a degree that the crural muscles slightly contractable by a stimulus given to the nerve, and care was taken not to cause injury in the axon by the ligation operation itself.” left out
# To measure the pain threshold for a mechanical stimulus (von Frey withdrawal threshold), the von Frey hair test was performed in the same manner as in the Semmes-Weinstein test (Z. Gesamte Neurol. Psychiat., Vol. 79, pp. 324-333, 1922; Perceptual and Motor Skills, Vol. 14, pp. 351-354, 1962; The Journal of Hand Surgery, Vol. 3, pp. 211-216, 1978), which is clinically performed. […] In this procedure, the pain threshold (g) for the pressure stimuli to both the soles was measured twice for each time, and the average of the results obtained in measurements of 4 times in total was used as a measured value.
# [4] = test system: α2A-adrenergic receptor mRNA; experiment: Measurement of α2A-adrenergic receptor mRNA in the spinal cord by RT-PCR; assay type: in vivo, rat; conditions: 60 μg/day i.v. continuously; 3 weeks after sciatic nerve ligation; compared with control group and sham operation group
# Experimental: The spinal cord in the sciatic nerve innervation territory was removed from rats of the sham operation group (n=7) and rats 3 weeks after the sciatic nerve ligation (each n=7) which were intravenously administered with saline or 60 μg/day of ginsenoside Rb1 (S60) continuously from 24 hours after the sciatic nerve ligation, and total RNA was extracted by using ISOGEN (Nippon Gene, Tokyo). The extracted total RNA was treated with DNase, and single-stranded cDNA was synthesized by using oligo-dT primers and Moloney murine leukemia virus reverse transcriptase (Life Technologies, Rockville, USA). The sequences of the primers used in this example were as follows.
# PCR was performed under the following condition using Taq polymerase (Takara, Tokyo). For β-actin, after a reaction at 94° C. for 5 minutes, a cycle of heat denaturation at 94° C. for 1 minute, annealing at 55° C. for 1 minute and 30 seconds and elongation at 72° C. for 1 minute and 30 seconds was repeated 25 times. For α2A-adrenergic receptor, after a reaction at 94° C. for 2 minutes, a cycle of heat denaturation at 94° C. for 1 minute, annealing at 60° C. for 1 minute and elongation at 72° C. for 1 minute was repeated 30 times. As the internal control, β-actin was used.
# [5] = test system: α2A-adrenergic receptor protein; experiment: Expression of α2A-adrenergic receptor protein in the spinal cord (immunoblot); assay type: in vivo, rat; conditions: 60 μg/day i.v. continuously; 3 weeks after sciatic nerve ligation; compared with control group and sham operation group
# Experimental: The spinal cord in the sciatic nerve innervation territory was removed from rats of the sham operation group (n=3) and rats 3 weeks after the sciatic nerve ligation (each n=3) which were intravenously administered with saline or 60 μg/day of ginsenoside Rb1 (S60) continuously from 24 hours after the sciatic nerve ligation, added to 10 times in volume of 50 mM phosphate buffer, 100 μM pAPMSF, 0.5% Triton-X and 0.5% SDS, and homogenized. The homogenate was added with a half volume of 6% SDS (+β-mercaptoethanol), incubated at 99° C. for 10 minutes and centrifuged at 15,000 rpm and 4° C. for 10 minutes, and the supernatant was used as a sample. Electrophoresis was performed on 10% SDS polyacrylamide, and then the protein was transferred on a polyvinylidine difluoride membrane (Millipore, Bedford, U.S.A.) by using a transblotting apparatus. Western blotting was performed by using anti-α2A-adrenoceptor antibody (ALEXIS BIOCHEMICALS, San Diego, USA) as the primary antibody and anti-rabbit IgG conjugated with alkaline phosphatase (SIGMA Chemicals, St. Louis, U.S.A) as the secondary antibody.
# [6] = test system: transient forebrain ischemia; conditions: oral (red ginseng powder) or intraperitoneal (crude ginseng saponin, ginsenoside Rb1) over one week before ischemia; cited from earlier work
# [7] = test system: transient forebrain ischemia; conditions: continuously injected into the brain ventricle for 7 days after ischemia, cited from earlier work
compound,measurement,setting,value
"NCCc1c[nH]c2c(O)cc(O)cc12 [5,7-DHT, 5,7-dihydroxytryptamine, reference compound]","heat test with vs without / before vs after the depletor or blocker, control group",[1]; phentolamine 20 mg/kg s.c.,no significant difference
"CC(C)=CCC[C@](C)(O[C@@H]1O[C@H](CO[C@@H]2O[C@@H](CO)[C@H](O)[C@H]2O)[C@@H](O)[C@H](O)[C@H]1O)[C@H]1CC[C@]2(C)[C@@H]1[C@H](O)C[C@@H]1[C@@]3(C)CC[C@H](O[C@@H]4O[C@H](CO)[C@@H](O)[C@H](O)[C@H]4O[C@@H]4O[C@H](CO)[C@@H](O)[C@H](O)[C@H]4O)C(C)(C)[C@@H]3CC[C@]12C [Rc, ginsenoside Rc]",analgesic effect,mice,analgesic effect
"CC(C)=CCC[C@](C)(O[C@@H]1O[C@H](CO)[C@@H](O)[C@H](O)[C@H]1O)[C@H]1CC[C@]2(C)[C@@H]1[C@H](O)C[C@@H]1[C@@]3(C)CC[C@H](O[C@@H]4O[C@H](CO)[C@@H](O)[C@H](O)[C@H]4O[C@@H]4O[C@H](CO)[C@@H](O)[C@H](O)[C@H]4O)C(C)(C)[C@@H]3CC[C@]12C [Rd, ginsenoside Rd]",analgesic effect,mice,analgesic effect
"CC(C)=CCC[C@](C)(O[C@@H]1O[C@H](CO)[C@@H](O)[C@H](O)[C@H]1O)[C@H]1CC[C@]2(C)[C@@H]1[C@H](O)C[C@@H]1[C@@]3(C)CC[C@H](O)C(C)(C)[C@@H]3[C@@H](O[C@@H]3O[C@H](CO)[C@@H](O)[C@H](O)[C@H]3O[C@@H]3O[C@@H](C)[C@H](O)[C@@H](O)[C@H]3O)C[C@]12C [Re, ginsenoside Re]",analgesic effect,mice,analgesic effect
"CC(C)=CCC[C@](C)(O)[C@H]1CC[C@]2(C)[C@@H]1[C@H](O)C[C@@H]1[C@@]3(C)CC[C@H](O)C(C)(C)[C@@H]3[C@@H](O[C@@H]3O[C@H](CO)[C@@H](O)[C@H](O)[C@H]3O[C@@H]3O[C@H](CO)[C@@H](O)[C@H](O)[C@H]3O)C[C@]12C [Rf, ginsenoside Rf]",analgesic effect,mice,analgesic effect
CC(C)=CCC[C@](C)(O[C@@H]1O[C@H](CO[C@@H]2O[C@H](CO)[C@@H](O)[C@H](O)[C@H]2O)[C@@H](O)[C@H](O)[C@H]1O)[C@H]1CC[C@]2(C)[C@@H]1[C@H](O)C[C@@H]1[C@@]3(C)CC[C@H](O[C@@H]4O[C@H](CO)[C@@H](O)[C@H](O)[C@H]4O[C@@H]4O[C@H](CO)[C@@H](O)[C@H](O)[C@H]4O)C(C)(C)[C@@H]3CC[C@]12C [ginsenoside Rb1],"hyperalgesia (heat test, withdrawal latency)",[2],hyperalgesia was significantly relieved
same,"allodynia (pressure test, von Frey pain threshold)",[3],allodynia was not ameliorated
same,"allodynia (pressure test, von Frey pain threshold)",[3]; listed as Rb1,amelioration of allodynia was not observed
same,"heat test, animals administered vs not administered with 5,7-DHT, Rb1-administered groups","[1]; 5,7-DHT intradurally 60 μL g 1 week before measurement",no significant difference
same,"heat test before and after administration of naloxone, Rb1-administered groups","[1]; naloxone 5 mg/kg s.c., heat test again one hour later",no significant difference
same,"hyperalgesia suppressing effect after administration of phentolamine, Rb1-administered groups","[1]; phentolamine 20 mg/kg s.c., heat test again one hour later",significantly inhibited
same,"heat test before and after administration of propranolol, Rb1-administered groups","[1]; propranolol 10 mg/kg s.c., heat test again one hour later",no significant difference
same,expression level of the α2A-adrenergic receptor mRNA in the spinal cord,[4],significantly increased
same,expression level of the α2A-adrenergic receptor protein in the spinal cord,[5],significantly increased
same,delayed nerve cell death,[6],inhibition of delayed nerve cell death
same,learning and behavioral impairment,[6],improvement of learning and behavioral impairment
same,delayed nerve cell death in the hippocampus CA1 region,[7],significantly reduced
same,response latency in a passive avoidance learning experiment,"[7]; dose-dependent, compared with a control",significantly prolonged
"C=CCN1CC[C@]23c4c5ccc(O)c4O[C@H]2C(=O)CC[C@@]3(O)[C@H]1C5 [naloxone, reference compound]","heat test with vs without / before vs after the depletor or blocker, control group",[1]; phentolamine 20 mg/kg s.c.,no significant difference
"Cc1ccc(N(CC2=NCCN2)c2cccc(O)c2)cc1 [phentolamine, reference compound]","heat test with vs without / before vs after the depletor or blocker, control group",[1]; phentolamine 20 mg/kg s.c.,no significant difference
"CC(C)NCC(O)COc1cccc2ccccc12 (stereo not drawn) [propranolol, reference compound]","heat test with vs without / before vs after the depletor or blocker, control group",[1]; phentolamine 20 mg/kg s.c.,no significant difference
